Here are results for 2 compounds from article PMC11801715, “Activating PKC-ε induces HIV expression with improved tolerability” (PLOS Pathogens, 2025).

The structures appear in SMILES notation. Some results are limits rather than exact numbers.

Data set [1] concerns platelets (CD62P+) and CD4+ T cells (CD69+) in whole blood. Kind of data set: In vitro whole blood platelet and CD4+ T-cell activation assay. The following applies: whole blood from healthy donors; platelets to CD4+ T cells. The class given is cell-based, human. How it is done:
We developed a novel human whole blood assay to determine whether other PKC agonists also activate platelets at the same concentrations that are required to activate CD4^+ T cells. Platelet activation was assessed by CD62P (P-selectin), which traffics to the cell surface upon activation and α-granule release. CD4^+ T-cell activation was assessed by CD69 upregulation (Fig 7A).
Whole blood was drawn into sodium citrate tubes using a 21-gauge needle. To prevent potential interference from tissue thromboplastin released during venipuncture, which could affect the accuracy of coagulation testing, the first 2 mL of blood drawn was discarded. PKC agonist molecules were dispensed in a dilution series into 80 μL of blood per well in a flat-bottom 96-well plate and mixed gently. Care was taken not to introduce any mechanical stress-related activation of platelets. […] The remaining 72 μL of blood in the first plate was incubated for 1 additional hour and stained with anti-human CD3 (UCHT1), CD4 (SK3), and CD69 (FN50) (30 minutes in the dark). Red blood cell lysis and fixing was done using BD lyse/fix solution. Stained cells were acquired on BD LSR Fortessa II after washing. […] EC50 values for platelet and CD4 T-cell activation for each agonist was obtained by nonlinear regression curve fit using GraphPad Prism version 9.3.0.

For data set [2] the following is noted: cited from earlier work.
Data set [3] in a line: Free fraction in cell culture media. The class given is in vitro ADME.
The subject of data set [4] is latent HIV in total CD4+ T cells. Kind of data set: microbe, parasite or virus in culture. Type of data set: cell-based, HIV-1. The following applies: inhibitor 5 μM with DMSO, no agonist. How it is done: Peripheral blood mononuclear cells and CD4^+ T cells used for evaluating PKC agonist and inhibitor molecules were isolated from leukopaks of selected participants as described previously. Isolated CD4^+ T cells (5×10^6 cells/well) were added to 24-well tissue culture plates in 2.5 mL of RPMI medium containing 100 nM each of elvitegravir and efavirenz. Cells were stimulated with DMSO (vehicle control) or the indicated concentrations of PKC agonist molecules. Cells were pretreated with PKC isoform inhibitors (Selleck Chemicals) for 1 hour before addition of PKC agonist at indicated concentrations and maintained at 37 °C, 5% CO2 for 3 days. Cell supernatants from each well were analyzed using the Cobas […] system for quantification of HIV-1 RNA using the HIV-1 test v2.0 kit (Roche Diagnostics).

Data set [5] concerns classical and novel PKC isoforms. Kind of data set: Estimated PKC inhibition in cell culture from Z'-LYTE IC50 and free fraction. Type of data set: biochemical. The following applies: 5 µM, 46% free in cell culture media. From the text: (§1) In this assay, phosphorylation of a synthetic FRET-peptide substrate protects the peptide from cleavage by the development reagent and prevents disruption of the FRET signal.

In data set [6] the target is PKC-θ (Homo sapiens, UniProt Q04759). Description: Z'-LYTE kinase activity assay. Type of data set: biochemical. The conditions noted are these: ATP at Kmapp, 2 μM peptide substrate; read-out: IC50 for novel PKC isoforms, PKC-θ.
Source text: as §1

Data set [7] has as its target PKC-β2 (Homo sapiens, UniProt P05771). Kind of data set: Z'-LYTE kinase activity assay. The class given is biochemical. The following applies: ATP at Kmapp, 2 μM peptide substrate; read-out: IC50 for classical PKC isoforms, PKC-β2.
Source text: as §1

Data set [8] deals with PKC-δ (Homo sapiens, UniProt Q05655). Description: Z'-LYTE kinase activity assay. The conditions noted are these: ATP at Kmapp, 2 μM peptide substrate; read-out: IC50 for novel PKC isoforms, PKC-δ. Type of data set: biochemical.
Source text: as §1

Data set [9] has as its target PKC-β1 (Homo sapiens, UniProt P05771). Kind of data set: Z'-LYTE kinase activity assay. The conditions noted are these: ATP at Kmapp, 2 μM peptide substrate; read-out: IC50 for classical PKC isoforms, PKC-β1. Type of data set: biochemical.
Source text: as §1

For data set [10], the target named is T1, PKC-ε (Homo sapiens, UniProt Q02156).
T1 sequence (Q02156 1-737): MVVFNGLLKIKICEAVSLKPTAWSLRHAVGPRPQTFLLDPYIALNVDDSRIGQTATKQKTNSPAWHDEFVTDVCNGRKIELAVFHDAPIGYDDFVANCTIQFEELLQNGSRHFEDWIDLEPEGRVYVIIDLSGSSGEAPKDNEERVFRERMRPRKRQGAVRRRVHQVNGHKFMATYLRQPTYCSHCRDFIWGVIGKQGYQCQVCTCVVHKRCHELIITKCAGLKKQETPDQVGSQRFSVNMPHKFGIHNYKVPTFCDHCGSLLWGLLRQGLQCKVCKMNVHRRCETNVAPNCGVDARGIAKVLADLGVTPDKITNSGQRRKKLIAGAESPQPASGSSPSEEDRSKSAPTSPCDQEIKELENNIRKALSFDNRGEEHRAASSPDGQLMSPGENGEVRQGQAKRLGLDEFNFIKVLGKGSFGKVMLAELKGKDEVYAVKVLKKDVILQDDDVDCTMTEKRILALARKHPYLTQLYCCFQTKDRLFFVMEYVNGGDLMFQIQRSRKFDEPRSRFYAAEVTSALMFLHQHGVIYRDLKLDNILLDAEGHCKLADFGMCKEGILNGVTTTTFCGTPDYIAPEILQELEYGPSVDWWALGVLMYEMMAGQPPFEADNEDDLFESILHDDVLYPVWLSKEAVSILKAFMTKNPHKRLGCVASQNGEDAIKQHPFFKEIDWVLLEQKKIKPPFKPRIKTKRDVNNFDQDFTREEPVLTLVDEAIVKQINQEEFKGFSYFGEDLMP
Kind of data set: Z'-LYTE kinase activity assay. The class given is biochemical.
Source text: as §1

Data set [11] deals with PKC-γ (Homo sapiens, UniProt P05129). Kind of data set: Z'-LYTE kinase activity assay. The class given is biochemical. The conditions noted are these: ATP at Kmapp, 2 μM peptide substrate; read-out: IC50 for classical PKC isoforms, PKC-γ.
Source text: as §1

Data set [12] concerns the target PKC-η (Homo sapiens, UniProt P24723). Description: Z'-LYTE kinase activity assay. The class given is biochemical. The conditions noted are these: ATP at Kmapp, 2 μM peptide substrate; read-out: IC50 for novel PKC isoforms, PKC-η.
Source text: as §1

Data set [13] deals with PKC-α (Homo sapiens, UniProt P17252). Description: Z'-LYTE kinase activity assay. The following applies: ATP at Kmapp, 2 μM peptide substrate; read-out: IC50 for classical PKC isoforms, PKC-α. The class given is biochemical.
Source text: as §1

Sequence of PKC-β1 (P05771 whole entry, canonical isoform): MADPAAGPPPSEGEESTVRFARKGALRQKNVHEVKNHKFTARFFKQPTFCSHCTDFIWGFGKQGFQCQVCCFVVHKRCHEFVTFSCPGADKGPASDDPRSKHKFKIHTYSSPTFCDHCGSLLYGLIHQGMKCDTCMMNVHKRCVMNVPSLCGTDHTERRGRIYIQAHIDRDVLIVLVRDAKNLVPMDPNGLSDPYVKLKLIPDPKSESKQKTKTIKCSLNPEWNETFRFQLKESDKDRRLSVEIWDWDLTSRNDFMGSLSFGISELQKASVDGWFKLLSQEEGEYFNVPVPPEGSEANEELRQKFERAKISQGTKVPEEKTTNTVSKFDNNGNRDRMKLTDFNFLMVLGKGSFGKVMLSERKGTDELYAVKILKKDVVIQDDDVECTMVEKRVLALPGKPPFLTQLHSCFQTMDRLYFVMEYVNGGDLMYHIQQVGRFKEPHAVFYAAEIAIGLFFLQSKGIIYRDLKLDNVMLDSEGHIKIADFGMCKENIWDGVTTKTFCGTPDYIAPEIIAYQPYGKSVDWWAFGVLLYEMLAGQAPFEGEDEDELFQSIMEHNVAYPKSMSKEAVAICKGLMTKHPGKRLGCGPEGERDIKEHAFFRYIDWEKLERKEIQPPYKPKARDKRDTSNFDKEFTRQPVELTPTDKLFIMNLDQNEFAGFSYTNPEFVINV
Sequence of PKC-θ (Q04759 whole entry, canonical isoform): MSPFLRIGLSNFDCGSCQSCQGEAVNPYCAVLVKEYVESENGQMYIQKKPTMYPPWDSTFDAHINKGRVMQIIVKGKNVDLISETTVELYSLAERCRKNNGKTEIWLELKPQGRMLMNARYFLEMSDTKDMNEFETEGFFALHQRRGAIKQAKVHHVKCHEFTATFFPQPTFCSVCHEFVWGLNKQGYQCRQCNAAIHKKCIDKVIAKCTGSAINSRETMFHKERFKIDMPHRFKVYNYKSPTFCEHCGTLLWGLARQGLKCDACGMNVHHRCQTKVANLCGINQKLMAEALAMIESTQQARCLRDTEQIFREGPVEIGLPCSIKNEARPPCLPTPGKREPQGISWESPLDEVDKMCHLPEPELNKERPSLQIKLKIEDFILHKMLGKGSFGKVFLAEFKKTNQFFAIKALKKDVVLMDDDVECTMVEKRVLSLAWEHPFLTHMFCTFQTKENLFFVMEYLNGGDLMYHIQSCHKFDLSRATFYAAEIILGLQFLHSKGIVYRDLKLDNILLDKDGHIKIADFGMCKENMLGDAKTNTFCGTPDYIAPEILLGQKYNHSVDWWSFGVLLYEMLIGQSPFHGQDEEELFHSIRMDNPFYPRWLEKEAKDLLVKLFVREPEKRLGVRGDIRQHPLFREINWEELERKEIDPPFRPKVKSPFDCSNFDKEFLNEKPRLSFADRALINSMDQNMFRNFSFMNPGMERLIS
Sequence of PKC-β2 (P05771 1-673 isoform P05771-2): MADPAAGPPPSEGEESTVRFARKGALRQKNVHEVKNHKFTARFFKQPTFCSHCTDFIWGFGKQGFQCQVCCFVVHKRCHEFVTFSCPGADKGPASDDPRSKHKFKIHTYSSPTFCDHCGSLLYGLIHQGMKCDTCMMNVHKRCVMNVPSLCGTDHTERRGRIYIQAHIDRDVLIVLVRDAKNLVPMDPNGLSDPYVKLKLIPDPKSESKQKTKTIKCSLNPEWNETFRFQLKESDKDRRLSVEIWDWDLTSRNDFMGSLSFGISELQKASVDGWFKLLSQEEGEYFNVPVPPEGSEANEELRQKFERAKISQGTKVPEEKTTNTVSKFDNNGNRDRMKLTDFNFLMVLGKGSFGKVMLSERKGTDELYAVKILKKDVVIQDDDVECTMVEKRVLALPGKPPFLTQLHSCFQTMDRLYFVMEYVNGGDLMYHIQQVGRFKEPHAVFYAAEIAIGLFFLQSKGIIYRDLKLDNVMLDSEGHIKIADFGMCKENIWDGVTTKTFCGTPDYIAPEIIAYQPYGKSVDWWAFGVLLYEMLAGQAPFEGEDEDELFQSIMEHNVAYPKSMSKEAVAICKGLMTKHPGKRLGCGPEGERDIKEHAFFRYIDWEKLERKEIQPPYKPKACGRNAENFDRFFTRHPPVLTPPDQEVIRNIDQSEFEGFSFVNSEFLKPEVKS
Sequence of PKC-δ (Q05655 whole entry, canonical isoform): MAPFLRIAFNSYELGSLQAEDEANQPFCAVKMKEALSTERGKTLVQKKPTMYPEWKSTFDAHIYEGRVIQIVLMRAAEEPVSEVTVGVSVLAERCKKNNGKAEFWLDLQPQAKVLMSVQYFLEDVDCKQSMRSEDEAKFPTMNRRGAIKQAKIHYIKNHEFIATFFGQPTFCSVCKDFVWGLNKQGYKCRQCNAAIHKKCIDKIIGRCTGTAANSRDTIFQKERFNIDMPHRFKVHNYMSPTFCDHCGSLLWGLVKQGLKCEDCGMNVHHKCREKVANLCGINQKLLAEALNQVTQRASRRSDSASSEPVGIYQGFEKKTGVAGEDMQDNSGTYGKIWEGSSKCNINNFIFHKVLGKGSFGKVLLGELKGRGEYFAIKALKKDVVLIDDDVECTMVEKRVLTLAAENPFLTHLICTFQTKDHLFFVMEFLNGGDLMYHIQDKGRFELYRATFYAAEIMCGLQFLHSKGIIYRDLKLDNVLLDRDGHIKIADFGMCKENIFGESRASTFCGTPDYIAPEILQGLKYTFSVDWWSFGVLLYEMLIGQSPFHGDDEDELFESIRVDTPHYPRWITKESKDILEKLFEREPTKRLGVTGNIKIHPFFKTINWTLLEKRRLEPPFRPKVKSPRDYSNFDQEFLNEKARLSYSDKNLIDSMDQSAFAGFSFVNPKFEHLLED
Sequence of PKC-η (P24723 whole entry, canonical isoform): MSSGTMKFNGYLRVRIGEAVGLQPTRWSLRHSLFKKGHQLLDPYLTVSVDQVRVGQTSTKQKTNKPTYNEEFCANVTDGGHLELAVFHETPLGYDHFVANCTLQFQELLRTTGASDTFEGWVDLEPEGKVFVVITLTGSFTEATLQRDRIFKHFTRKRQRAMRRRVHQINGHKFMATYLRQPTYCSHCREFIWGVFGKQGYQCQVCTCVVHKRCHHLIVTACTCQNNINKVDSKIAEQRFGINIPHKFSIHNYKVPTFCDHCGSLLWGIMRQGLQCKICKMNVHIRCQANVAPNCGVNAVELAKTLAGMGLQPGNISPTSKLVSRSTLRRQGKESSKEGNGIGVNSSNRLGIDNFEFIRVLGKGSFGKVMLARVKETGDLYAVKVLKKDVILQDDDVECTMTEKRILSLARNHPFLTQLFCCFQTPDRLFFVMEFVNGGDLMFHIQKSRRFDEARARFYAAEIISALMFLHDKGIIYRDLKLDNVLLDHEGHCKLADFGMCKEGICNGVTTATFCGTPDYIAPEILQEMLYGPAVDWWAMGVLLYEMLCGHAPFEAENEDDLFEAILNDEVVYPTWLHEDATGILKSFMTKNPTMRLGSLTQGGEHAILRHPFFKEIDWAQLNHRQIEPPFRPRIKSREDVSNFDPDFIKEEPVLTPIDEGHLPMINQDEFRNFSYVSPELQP

For `CCC/C=C/C=C/C(=O)O[C@H]1/C(=C/C(=O)OC)C[C@H]2C[C@H]([C@@H](C)O)OC(=O)C[C@H](O)C[C@@H]3C[C@H](OC(C)=O)C(C)(C)[C@](O)(C[C@@H]4C/C(=C/C(=O)OC)C[C@H](/C=C/C(C)(C)[C@]1(O)O2)O4)O3` [Bryostatin, reference compound], in data set [1], the “CD62P EC50/CD69 EC50 ratio Geomean” value is on record as 0.9. Besides, the dose-limiting toxicity entry in data set [2] is recorded as “myalgia”.

As to `CN(C)CCCn1cc(C2=C(c3c[nH]c4ccccc34)C(=O)NC2=O)c2ccccc21` [Gӧ-6850], the “free in cell culture media” value in data set [3] was found to be 46%. In addition, the “HIV RNA Fold∆ over DMSO, Geomean” value in [4] amounted to 1.2 fold. In data set [5], the “estimated inhibition of all classical and novel isoforms, except PKC-ε” value is > 90%. For the same compound, the IC50 was 3 nM in [6]; 0.331 nM in data set [7]; 9.63 nM in data set [8]; 0.457 nM in data set [9]; 67.6 nM in [10] (ATP at Kmapp, 2 μM peptide substrate, read-out: IC50 for novel PKC isoforms, PKC-ε); 2.18 nM in [11]. In addition, the results for the IC50 in data set [12] and in [13] were 11.3 nM and 2.53 nM, respectively. For the same compound, the inhibition at 5 µM in data set [10] (5 µM, 46% free in cell culture media, read-out: estimated inhibition of PKC-ε) was 70%.
